Results reported in patent publication US20230159469A1, “NOVEL PHTHALAZINE DERIVATIVE HAVING ECTONUCLOEOTIDE PYROPHOSPHATASE/PHOSPHODIESTE RASE INHIBITORY ACTIVITY, AND USE THEREOF” (TXINNO BIOSCIENCE INC., priority 2020, published 2023).
Where a name gives a salt, the structure may show the parent alone.

Biological target: T1, human recombinant ENPP1 (Homo sapiens, UniProt P22413)
T1 construct: purchased R & D systems
T1 sequence (P22413 1-925): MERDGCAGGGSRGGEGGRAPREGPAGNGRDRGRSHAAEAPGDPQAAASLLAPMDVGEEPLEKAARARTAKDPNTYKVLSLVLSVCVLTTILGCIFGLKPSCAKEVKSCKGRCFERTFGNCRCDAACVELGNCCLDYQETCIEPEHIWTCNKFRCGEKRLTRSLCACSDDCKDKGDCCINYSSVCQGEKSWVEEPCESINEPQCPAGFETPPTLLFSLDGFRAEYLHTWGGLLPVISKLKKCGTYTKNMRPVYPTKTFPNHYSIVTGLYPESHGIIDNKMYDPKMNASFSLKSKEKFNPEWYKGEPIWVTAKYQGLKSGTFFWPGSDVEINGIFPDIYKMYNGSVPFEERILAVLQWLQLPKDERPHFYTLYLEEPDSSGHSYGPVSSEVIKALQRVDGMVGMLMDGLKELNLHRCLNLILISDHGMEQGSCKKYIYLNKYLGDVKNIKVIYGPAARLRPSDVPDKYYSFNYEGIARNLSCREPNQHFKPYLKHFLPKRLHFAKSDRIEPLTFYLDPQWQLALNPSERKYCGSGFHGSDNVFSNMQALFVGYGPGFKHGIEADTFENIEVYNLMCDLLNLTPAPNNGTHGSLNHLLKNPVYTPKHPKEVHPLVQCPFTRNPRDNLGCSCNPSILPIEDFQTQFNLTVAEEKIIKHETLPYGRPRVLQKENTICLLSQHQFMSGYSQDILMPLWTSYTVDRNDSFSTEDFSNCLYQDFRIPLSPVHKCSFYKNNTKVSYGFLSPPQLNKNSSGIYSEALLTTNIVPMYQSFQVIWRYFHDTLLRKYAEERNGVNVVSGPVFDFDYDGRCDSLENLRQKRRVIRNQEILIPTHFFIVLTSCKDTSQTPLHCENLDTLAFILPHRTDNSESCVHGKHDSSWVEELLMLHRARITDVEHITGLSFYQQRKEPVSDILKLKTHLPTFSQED
Assay: ENPP1 enzyme assay with cGAMP substrate (AMP-Glo luminescence)
Type: biochemical
Details: human recombinant ENPP1 3 ng/reaction, cGAMP 5 μM, 37° C. 90 minutes, read-out: Enzymatic activity (ENPP1 IC50)
Method in brief: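 Human ENPP1 hydrolysis of 5 μM cGAMP was run for 90 min at 37° C in 50 mM Tris pH 8.5, 250 mM NaCl, 0.5 mM CaCl2, 1 μM ZnCl2, 5% glycerol, 1% DMSO. AMP product was quantified by AMP-Glo luminescence; IC50 came from 3-parameter fits of % residual activity, averaged over at least two runs.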

IC50 | Compound
1 to 10 µM | COc1cc2c(-c3ccc(CNS(N)(=O)=O)c(C(F)(F)F)c3)n[nH]c(=O)c2cc1OC [Compound No. 119, hydrochloride]
> 10 µM | COc1cc2c(-c3ccc(CN(C)S(N)(=O)=O)c(C(F)(F)F)c3)n[nH]c(=O)c2cc1OC [Compound No. 120, hydrochloride]
< 1 µM | NS(=O)(=O)N1CCc2ccc(-c3n[nH]c(=O)c4ccccc34)cc2C1 [Compound No. 121, 7-(4-oxo-3,4-dihydrophthalazin-1-yl)-3,4-dihydroisoquinoline-2(1H) sulfamide hydrochloride]
< 1 µM | COc1cc2c(-c3ccc4c(c3)CN(S(N)(=O)=O)CC4)n[nH]c(=O)c2cc1OC [Compound No. 122, 7-(6,7-dimethoxy-4-oxo-3,4-dihydrophthalazin-1-yl)-3,4-dihydroisoquinoline-2(1H)-sulfamide]
< 1 µM | CC(NS(N)(=O)=O)c1ccc(-c2n[nH]c(=O)c3ccccc23)cc1 (stereo not drawn) [Compound No. 123, N-(1-(4-(4-oxo-3,4-dihydrophthalazin-1-yl)phenyl)ethyl)sulfamide hydrochloride]
< 1 µM | C[C@@H](NS(N)(=O)=O)c1ccc(-c2n[nH]c(=O)c3ccccc23)cc1 [Compound No. 124, (R)-N-(1-(4-(4-oxo-3,4-dihydrophthalazin-1-yl)phenyl)ethyl)sulfamide hydrochloride]
1 to 10 µM | CC(C)(NS(N)(=O)=O)c1ccc(-c2n[nH]c(=O)c3ccccc23)cc1 [Compound No. 125, N-(2-(4-(4-oxo-3,4-dihydrophthalazin-1-yl)phenyl)propan-2-yl)sulfamide hydrochloride]
< 1 µM | NS(=O)(=O)NCc1ccc(-c2n[nH]c(=O)c3ccccc23)cc1C(F)(F)F [Compound No. 126, N-(4-(4-oxo-3,4-dihydrophthalazin-1-yl)-2-(trifluoromethyl)benzyl)sulfamide hydrochloride]
< 1 µM | CN(Cc1ccc(-c2n[nH]c(=O)c3ccccc23)cc1)S(N)(=O)=O [Compound No. 127, N-methyl-N-(4-(4-oxo-3,4-dihydrophthalazin-1-yl)benzyl)sulfamide]
1 to 10 µM | NS(=O)(=O)N1CCc2cc(-c3n[nH]c(=O)c4ccccc34)ccc2C1 [Compound No. 128, 6-(4-oxo-3,4-dihydrophthalazin-1-yl-3,4-dihydroisoquinoline-2(1H)-sulfonamide hydrochloride]
1 to 10 µM | Cn1nc(-c2ccc3c(c2)CCN(S(N)(=O)=O)C3)c2ccccc2c1=O [Compound No. 129, 6-(3-methyl-4-oxo-3,4-dihydrophthalazin-1-yl)-3,4-dihydroisoquinoline-2(1H)-sulfonamide hydrochloride]
1 to 10 µM | COc1cc2c(-c3ccc4c(c3)CCN(S(N)(=O)=O)C4)n[nH]c(=O)c2cc1OC [Compound No. 130, 6-(6,7-dimethoxy-4-oxo-3,4-dihydrophthalazin-1-yl)-3,4-dihydroisoquinoline-2(1H)-sulfonamide hydrochloride]
1 to 10 µM | COc1cc2c(-c3ccc4c(c3)CCN(S(N)(=O)=O)C4)nn(C)c(=O)c2cc1OC [Compound No. 131, 6-(6,7-dimethoxy-3-methyl-4-oxo-3,4-dihydrophthalazin-1-yl)-3,4-dihydroisoquinoline-2(1H)-sulfonamide hydrochloride]
> 10 µM | CC(C)(C)OC(=O)NCC1CCN(c2n[nH]c(=O)c3ccccc23)CC1 [Compound No. 132, tert-butyl ((1-(4-oxo-3,4-dihydrophthalazin-1-yl)piperidin-4-yl)methyl)carbamate]
> 10 µM | COc1cc2c(N3CCC(CNC(=O)OC(C)(C)C)CC3)n[nH]c(=O)c2cc1OC [Compound No. 133, tert-butyl ((1-(6,7-dimethoxy-4-oxo-3,4-dihydrophthalazin-1-yl)piperidin-4-yl)methyl)carbamate]
1 to 10 µM | NCC1CCN(c2n[nH]c(=O)c3ccccc23)CC1 [Compound No. 134, 4-(4-(aminomethyl)piperidin-1-yl)phthalazin-1(2H)-one hydrochloride]
> 10 µM | COc1cc2c(N3CCC(CN)CC3)n[nH]c(=O)c2cc1OC [Compound No. 135, 4-(4-(aminomethyl)piperidin-1-yl)-6,7-dimethoxyphthalazin-1(2H)-one hydrochloride]

IC50 | Compound
> 10 µM | CC(C)(C)OC(=O)NS(=O)(=O)NCC1CCN(c2n[nH]c(=O)c3ccccc23)CC1 [Compound No. 136, tert-butyl N-((1-(4-oxo-3,4-dihydrophthalazin-1-yl)piperidin-4-yl)methyl)sulfamoyl carbamate]
> 10 µM | COc1cc2c(N3CCC(CNS(=O)(=O)NC(=O)OC(C)(C)C)CC3)n[nH]c(=O)c2cc1OC [Compound No. 137, tert-butyl N-((1-(6,7-dimethoxy-4-oxo-3,4-dihydrophthalazin-1-yl)piperidin-4-yl)methyl)sulfamoyl carbamate]
< 1 µM | NS(=O)(=O)NCC1CCN(c2n[nH]c(=O)c3ccccc23)CC1 [Compound No. 138, N-((1-(4-oxo-3,4-dihydrophthalazin-1-yl)piperidin-4-yl)methyl)sulfamide hydrochloride]
< 1 µM | COc1cc2c(N3CCC(CNS(N)(=O)=O)CC3)n[nH]c(=O)c2cc1OC [Compound No. 139, N-((1-(6,7-dimethoxy-4-oxo-3,4-dihydrophthalazin-1-yl)piperidin-4-yl)methyl)sulfamide hydrochloride]
> 10 µM | COc1cc2c(Nc3ccc(NS(N)(=O)=O)cc3)nn(C)c(=O)c2cc1OC [Compound No. 140, N-(4-(6,7-dimethoxy-3-methyl-4-oxo-3,4-dihydrophthalazin-1-yl)-amino)phenyl)sulfamide hydrochloride]
1 to 10 µM | COc1cc2c(Nc3cccc(NS(N)(=O)=O)c3)nn(C)c(=O)c2cc1OC [Compound No. 141, N-(3-(6,7-dimethoxy-3-methyl-4-oxo-3,4-dihydrophthalazin-1-yl)-amino)phenyl)sulfamide hydrochloride]
> 10 µM | NS(=O)(=O)NCCC1CCN(c2n[nH]c(=O)c3ccccc23)CC1 [Compound No. 142, N-(2-(1-(4-oxo-3,4-dihydrophthalazin-1-yl)piperidin-4-yl)ethyl)sulfamide trifluoroacetic acid]
> 10 µM | O=c1[nH]nc(Cc2ccccc2)c2ccccc12 [Compound No. 143, 4-benzylphthalazin-1(2H)-one]
> 10 µM | COc1cc2c(Cc3ccccc3)n[nH]c(=O)c2cc1OC [Compound No. 144, 4-benzyl-6,7-dimethoxyphthalazin-1(2H)-one]
> 10 µM | COc1cc2c(Cc3cccc(NC(=O)OC(C)(C)C)c3)n[nH]c(=O)c2cc1OC [Compound No. 145, tert-butyl (3-((6,7-dimethoxy-4-oxo-3,4-dihydrophthalazin-1-yl)methyl)phenyl)carbamate]
> 10 µM | COc1cc2c(Cc3cccc(NC(=O)OC(C)(C)C)c3)nn(C)c(=O)c2cc1OC [Compound No. 146, tert-butyl (3-((6,7-dimethoxy-3-methyl-4-oxo-3,4-dihydrophthalazin-1-yl)methyl)phenyl)carbamate]
> 10 µM | CC(C)(C)OC(=O)Nc1ccc(Cc2n[nH]c(=O)c3ccccc23)cc1 [Compound No. 147, tert-butyl (4-((4-oxo-3,4-dihydrophthalazin-1-yl)methyl)phenyl)carbamate]
> 10 µM | Cn1nc(Cc2ccc(NC(=O)OC(C)(C)C)cc2)c2ccccc2c1=O [Compound No. 148, tert-butyl (4-((3-methyl-4-oxo-3,4-dihydrophthalazin-1-yl)methyl)phenyl)carbamate]
> 10 µM | COc1cc2c(Cc3ccc(NC(=O)OC(C)(C)C)cc3)n[nH]c(=O)c2cc1OC [Compound No. 149, tert-butyl (4-((6,7-dimethoxy-4-oxo-3,4-dihydrophthalazin-1-yl)methyl)phenyl)carbamate]
> 10 µM | COc1cc2c(Cc3ccc(NC(=O)OC(C)(C)C)cc3)nn(C)c(=O)c2cc1OC [Compound No. 150, tert-butyl (4-((6,7-dimethoxy-3-methyl-4-oxo-3,4-dihydrophthalazin-1-yl)methyl)phenyl)carbamate]
> 10 µM | CN(C(=O)OC(C)(C)C)c1ccc(Cc2n[nH]c(=O)c3ccccc23)cc1 [Compound No. 151, tert-butyl (4-((4-oxo-3,4-dihydrophthalazin-1-yl)methyl)phenyl) (methyl)carbamate]
